Data published in publication PMC10079573 (The journal of pain, 2022).

Columns and labels:
in vitro [1] = type: in vitro ADME, mice; details: mouse; for fraction unbound at 4 h, 5 µM: plasma
Procedure: (§1) The objective of this study was to evaluate protein binding test compounds in human and mice plasma. This was accomplished by spiking the test compounds at a concentration of 5 µM into human and mice plasma and dialyzing against buffer until equilibrium is achieved (4 hours). Analyte area ratios of the test compounds in plasma and buffer were determined to calculate unbound and bound percentages of compound to the plasma proteins.
(§2) Compound concentration : 5 µM
(§3) Rapid equilibrium dialysis was performed with a rapid equilibrium dialysis (RED) device containing dialysis membrane with a molecular weight cut-off of 8,000 Daltons. Each dialysis insert contains two chambers. The red chamber is for plasma while the white chamber is for buffer.
(§4) After sealing the RED device with an adhesive film, dialysis was performed in incubator at 37 °C with shaking at 100 RPM for 4 hours.
(§5) Two aliquots were frozen immediately (0 minute sample). The other two aliquots were incubated at 37 °C for 4 hours along with the RED device.
(§6) Following dialysis, an aliquot of 50 µL was removed from each well (both plasma and buffer side) and diluted with equal volume of opposite matrix (dialyzed with the other matrix) to nullify the matrix effect. Similarly, 50 µL of buffer was added to recovery and stability samples. An aliquot of 100 µL was submitted for LC-MS/MS analysis.
(§7) The peak area ratios (analyte versus internal standard) obtained was used to determine the fraction of compound bound to plasma proteins. The following equation was used to determine the extent of plasma protein binding:
(§8) Percent free drug = 100 x (peak area ratio in dialysate buffer)
(§9) Percent bound drug = 100 - % free drug
(§10) Recovery (%): 100 x (response plasma + response buffer) after dialysis / (response plasma) incubated at 37 °C in tubes along with RED device.
(§11) Stability (%):100 x (response plasma) incubated at 37 °C in tubes along with RED device / (response plasma) samples frozen at 0 min

in vitro [2] = type: in vitro ADME; details: human; for fraction unbound at 4 h, 5 µM: plasma
Procedure: as §1, §2, §3, §4, §5, §6, §7, §8, §9, §10, §11

PAR2 = biological target: T1, PAR2 (Mus musculus, UniProt P55086); assay: Local intraplantar coinjection of C781 with PAR2 agonist 2AT: von Frey, Mouse Grimace Scale, hyperalgesic priming (PGE2); type: in vivo, C57BL6 mice; details: 2AT 20.9 ng intraplantar
T1 construct: from tissue; host or cells: living C57BL6 mice (hind paw / nociceptors)
T1 sequence (P55086 26-399): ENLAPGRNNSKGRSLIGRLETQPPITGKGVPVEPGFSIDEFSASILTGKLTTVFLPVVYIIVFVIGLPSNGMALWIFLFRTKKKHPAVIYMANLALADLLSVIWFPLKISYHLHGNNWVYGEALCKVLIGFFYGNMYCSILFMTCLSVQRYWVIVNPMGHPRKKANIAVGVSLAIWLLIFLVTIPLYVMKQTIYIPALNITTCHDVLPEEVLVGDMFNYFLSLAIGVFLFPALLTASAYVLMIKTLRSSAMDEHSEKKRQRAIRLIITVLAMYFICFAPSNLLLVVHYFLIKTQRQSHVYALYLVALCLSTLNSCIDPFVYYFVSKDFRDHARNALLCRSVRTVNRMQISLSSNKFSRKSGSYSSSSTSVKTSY
Procedure: Experimenters were blinded to treatment groups in all experiments. Animals were habituated to suspended acrylic chambers with each individual chamber measuring 11.4 × 7.6 × 7.6 cm and a wire mesh bottom (1 cm^2). Mechanical hypersensitivity was assessed using the manual von Frey hair test after spontaneous pain assessment using the Mouse Grimace Scale (MGS). This was done to assure that grimacing responses were not a result of mechanical stimulation.
MGS were determined using the MGS test as described by Langford and colleagues.[37] After habituation, the experimenter observed the mice and assigned intensity ratings (0 = not present, 1 = moderately present, 2 = severe) to the facial action units relative to baseline. The 5 action units identified are 1) orbital tightening, 2) nose bulge, 3) cheek bulge, 4) ear position, and 5) whisker change. The scores for all 5 action units are averaged to obtain the MGS score for each time point.
Hind paw withdrawal thresholds were calculated via the Dixon up-down method after applying calibrated von Frey filaments from Stoelting, Co. (cat# 58011) to the volar surface of the left hind paw.[12] […] The maximum filament weight used was 2 g.
Hyperalgesic priming was determined after allowing animals to return to baseline levels and injecting the previously injected paw with 100 ng of PGE2 (Cayman Chemical, Ann Arbor, MI). […]

Row | recovery at 4 h, 5 µM (in vitro [1]; pH 7.4) [%] | fraction unbound at 4 h, 5 µM (in vitro [1]; pH 7.4, % Bound Mean ± SD) | fraction unbound at 4 h, 5 µM (in vitro [1]; pH 7.4, % Bound R1) | fraction unbound at 4 h, 5 µM (in vitro [1]; pH 7.4, % Bound R2) | fraction unbound at 4 h, 5 µM (in vitro [1]; pH 7.4, % Bound R3) | recovery at 4 h, 5 µM (in vitro [2]; pH 7.4) [%] | fraction unbound at 4 h, 5 µM (in vitro [2]; pH 7.4, % Bound Mean ± SD) | fraction unbound at 4 h, 5 µM (in vitro [2]; pH 7.4, % Bound R1) | fraction unbound at 4 h, 5 µM (in vitro [2]; pH 7.4, % Bound R2) | fraction unbound at 4 h, 5 µM (in vitro [2]; pH 7.4, % Bound R3) | Compound | Nociceptive behaviors evoked by agonist (mechanical hypersensitivity, facial grimacing) (PAR2) | Hyperalgesic priming by agonist (response to PGE2) (PAR2; then PGE2 100 ng intraplantar)
1 | 94 | 0.061 | 0.058 | 0.057 | 0.07 | 97 | 0.011 | 0.012 | 0.01 | 0.011 | CC(=O)CC(c1ccccc1)c1c(O)c2ccccc2oc1=O (stereo not drawn) [Warfarin] |  | 
2 |  |  |  |  |  |  |  |  |  |  | 2-aminothiazo-4-yl-LIGRL-NH2 [Compound 2AT] | caused both mechanical hypersensitivity and facial grimacing | primed and exhibited mechanical allodynia and facial grimacing in response to PGE2
